# In patent publication US20250320556A1, “METHODS AND RELATED ASPECTS FOR DIGITAL MULTI-TEMPERATURE FLUOROMETRIC DETECTION” (THE JOHNS HOPKINS UNIVERSITY, priority 2024, published 2025):
# Assays:
# H23 cell line = assay: Hypomethylating drug treatment of H23 cells, methylation read out by 15-plex FLAP-Melt; format: cell-based, human; conditions: 500 nM, course of 7 days
# Procedure: (§1) FIGS. 24A-24D. Methylation analysis in Aza-treated cell lines. Normalized methylation levels in untreated and 500 nM Aza-treated cells for H23 (A) and H520 (B) cell lines. Relative methylation changes in Aza-treated cells, normalized to untreated controls, are shown as clustered bar plots. Each cluster represents a loci from the 15-plex panel, with bars indicating different time points. (C) H23 cell line. (D) H520 cell line.
# (§2) A notable application of digital PCR-based cfDNA tests is longitudinal disease progression monitoring over and after a course of treatment due to the quantification capability of the technology. Next, we sought to evaluate the performance of our assay in detecting multiple methylation biomarkers in real biological samples with a focus on the ability of our assay to quantify methylation level changes. We started with two cancer cell lines, H23 and H520, derived from lung tissues of NSCLC patients. To replicate a typical treatment monitoring scenario, we conducted hypomethylating drug treatment on the cell lines using 5-Azacytidine (5-Aza), a drug that can irreversibly bind to DNA methyltransferase after being incorporated into DNA and inhibits its activity. H520 and H23 were treated with 5-Aza at 500 nM over a course of 5 and 7 days, respectively. […]
# H520 cell line = assay: Hypomethylating drug treatment of H520 cells, methylation read out by 15-plex FLAP-Melt; format: cell-based, human; conditions: 500 nM, course of 5 days
# Procedure: as §1, §2
structure (smiles),measurement,setting,value
"Nc1ncn([C@@H]2O[C@H](CO)[C@@H](O)[C@H]2O)c(=O)n1 [5-Aza, 5-Azacytidine]",confluency rate of treated cells compared with untreated cells,H23 cell line,much lower
same,methylation level of targets (15-plex panel) in treated cells,"H23 cell line; vs untreated cells, majority of the targets",decreasing trend
same,confluency rate of treated cells compared with untreated cells,H520 cell line,much lower
same,methylation levels of targets (15-plex panel) in treated cells,H520 cell line; vs untreated cells,decreased overtime
